Measured values: patent US11787839B2, “Targeting α2δ-1-bound glutamate receptors for treating diseases and disorders” (Board of Regents, The University of Texas System, priority 2017, dated 2023)

Assays:
[1] = test system: paclitaxel-treated rats; assay: Paclitaxel-induced pain hypersensitivity in rats; format: in vivo, rat; conditions: paclitaxel- vs vehicle-treated rats
Protocol: (§1) To induce neuropathic pain, rats and mice were intraperitoneally injected with paclitaxel (2 mg/kg; TEVA Pharmaceuticals, North Wales, Pa.) every 2 days for a total of 4 injections (days 1, 3, 5 and 7; total dose, 8 mg/kg), as described previously (Polomano et al., 2001). Animals in the control group were intraperitoneally injected with the vehicle (Cremophor EL/ethanol, 1:1) on the same 4 days. The presence of tactile allodynia was confirmed 10 to 12 days after drug treatment. Intrathecal catheters were implanted in some paclitaxel-treated rats during isoflurane-induced anesthesia. Briefly, a small puncture was made in the atlanto-occipital membrane of the cisterna magna and inserted a PE-10 catheter with the caudal tip reaching the lumbar enlargement of the spinal cord (Chen et al., 2014a; Xie et al., 2016).
Behavioral assessment of nociception: To measure tactile allodynia, mice or rats were individually placed on a mesh floor within a suspended chamber. […]
To quantify the mechanical nociceptive threshold in rats, the paw pressure (Randall-Selitto) test was conducted on the left hindpaw using an analgesiometer (Ugo Basile, Varese, Italy). […] When the rat withdrew its paw or vocalized, the pedal was immediately released, and the withdrawal threshold was recorded (Chen et al., 2014a). […]
(§2) To assess the thermal sensitivity of rats, the were placed individually on the glass surface of a thermal testing apparatus (IITC Life Sciences, Woodland Hills, Calif.). […] The paw withdrawal latency was recorded with a timer, and the hindpaw was tested twice to obtain an average time. […] After the threshold temperature was recorded, the mice were immediately removed from the plate. The heat threshold measurement was repeated 30 min later, and the average of the 2 recorded temperatures was considered as the heat threshold. The cold threshold was measured by cooling the plate from 30° C. at a rate of 6° C./min until nocifensive behaviors were observed. […]

[2] = test system: WT mice; assay: Paclitaxel-induced pain hypersensitivity in mice; format: in vivo, mouse
Protocol: as §1, with “Briefly, a small puncture was made in the atlanto-occipital membrane of the cisterna magna and inserted a PE-10 catheter with the caudal tip reaching the lumbar enlargement of the spinal cord (Chen et al., 2014a; Xie et al., 2016).” left out
as §2

[3] = biological target: presynaptic NMDARs of spinal lamina II neurons (Rattus norvegicus, UniProt P35439+Q00959+Q00960)
presynaptic NMDARs of spinal lamina II neurons, sequence (Q00959 20-1464 limits assumed, other chains not shown): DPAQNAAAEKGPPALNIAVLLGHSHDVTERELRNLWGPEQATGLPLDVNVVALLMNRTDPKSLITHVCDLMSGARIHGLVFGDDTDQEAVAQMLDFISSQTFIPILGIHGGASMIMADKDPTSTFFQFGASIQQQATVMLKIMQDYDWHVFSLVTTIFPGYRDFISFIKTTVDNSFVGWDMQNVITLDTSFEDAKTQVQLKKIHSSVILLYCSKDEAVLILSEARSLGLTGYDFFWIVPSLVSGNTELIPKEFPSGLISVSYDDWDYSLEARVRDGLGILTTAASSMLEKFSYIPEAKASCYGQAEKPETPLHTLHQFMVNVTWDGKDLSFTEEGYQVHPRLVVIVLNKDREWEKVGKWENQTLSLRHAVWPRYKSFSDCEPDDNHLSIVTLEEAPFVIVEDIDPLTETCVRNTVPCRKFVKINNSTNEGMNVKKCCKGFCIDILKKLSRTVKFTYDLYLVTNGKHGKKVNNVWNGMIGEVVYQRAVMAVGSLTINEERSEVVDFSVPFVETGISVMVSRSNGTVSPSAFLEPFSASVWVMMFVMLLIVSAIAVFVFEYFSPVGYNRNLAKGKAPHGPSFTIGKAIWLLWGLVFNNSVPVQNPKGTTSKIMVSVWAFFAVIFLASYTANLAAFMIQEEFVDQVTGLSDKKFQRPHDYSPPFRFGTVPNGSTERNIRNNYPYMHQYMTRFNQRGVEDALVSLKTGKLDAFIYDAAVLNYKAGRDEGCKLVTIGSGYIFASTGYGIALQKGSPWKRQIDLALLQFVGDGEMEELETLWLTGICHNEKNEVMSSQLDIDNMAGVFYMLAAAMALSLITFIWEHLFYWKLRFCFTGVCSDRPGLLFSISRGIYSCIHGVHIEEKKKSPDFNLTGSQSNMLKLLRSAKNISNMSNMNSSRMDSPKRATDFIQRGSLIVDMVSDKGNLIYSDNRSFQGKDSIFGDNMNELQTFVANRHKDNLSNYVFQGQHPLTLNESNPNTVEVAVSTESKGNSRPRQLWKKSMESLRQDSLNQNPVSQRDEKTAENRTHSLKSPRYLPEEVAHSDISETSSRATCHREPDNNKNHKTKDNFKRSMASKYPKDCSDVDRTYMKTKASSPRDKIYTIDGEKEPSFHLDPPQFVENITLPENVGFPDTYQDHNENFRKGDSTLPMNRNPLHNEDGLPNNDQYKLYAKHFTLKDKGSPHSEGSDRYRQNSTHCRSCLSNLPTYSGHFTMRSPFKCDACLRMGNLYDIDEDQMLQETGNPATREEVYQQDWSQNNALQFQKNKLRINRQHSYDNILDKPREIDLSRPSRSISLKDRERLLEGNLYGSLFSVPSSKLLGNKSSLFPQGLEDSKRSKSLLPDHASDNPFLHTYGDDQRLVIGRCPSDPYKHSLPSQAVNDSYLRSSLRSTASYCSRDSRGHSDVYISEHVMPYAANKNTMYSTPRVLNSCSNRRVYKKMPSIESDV
presynaptic NMDARs of spinal lamina II neurons, sequence (Q00960 27-1482, other chains not shown): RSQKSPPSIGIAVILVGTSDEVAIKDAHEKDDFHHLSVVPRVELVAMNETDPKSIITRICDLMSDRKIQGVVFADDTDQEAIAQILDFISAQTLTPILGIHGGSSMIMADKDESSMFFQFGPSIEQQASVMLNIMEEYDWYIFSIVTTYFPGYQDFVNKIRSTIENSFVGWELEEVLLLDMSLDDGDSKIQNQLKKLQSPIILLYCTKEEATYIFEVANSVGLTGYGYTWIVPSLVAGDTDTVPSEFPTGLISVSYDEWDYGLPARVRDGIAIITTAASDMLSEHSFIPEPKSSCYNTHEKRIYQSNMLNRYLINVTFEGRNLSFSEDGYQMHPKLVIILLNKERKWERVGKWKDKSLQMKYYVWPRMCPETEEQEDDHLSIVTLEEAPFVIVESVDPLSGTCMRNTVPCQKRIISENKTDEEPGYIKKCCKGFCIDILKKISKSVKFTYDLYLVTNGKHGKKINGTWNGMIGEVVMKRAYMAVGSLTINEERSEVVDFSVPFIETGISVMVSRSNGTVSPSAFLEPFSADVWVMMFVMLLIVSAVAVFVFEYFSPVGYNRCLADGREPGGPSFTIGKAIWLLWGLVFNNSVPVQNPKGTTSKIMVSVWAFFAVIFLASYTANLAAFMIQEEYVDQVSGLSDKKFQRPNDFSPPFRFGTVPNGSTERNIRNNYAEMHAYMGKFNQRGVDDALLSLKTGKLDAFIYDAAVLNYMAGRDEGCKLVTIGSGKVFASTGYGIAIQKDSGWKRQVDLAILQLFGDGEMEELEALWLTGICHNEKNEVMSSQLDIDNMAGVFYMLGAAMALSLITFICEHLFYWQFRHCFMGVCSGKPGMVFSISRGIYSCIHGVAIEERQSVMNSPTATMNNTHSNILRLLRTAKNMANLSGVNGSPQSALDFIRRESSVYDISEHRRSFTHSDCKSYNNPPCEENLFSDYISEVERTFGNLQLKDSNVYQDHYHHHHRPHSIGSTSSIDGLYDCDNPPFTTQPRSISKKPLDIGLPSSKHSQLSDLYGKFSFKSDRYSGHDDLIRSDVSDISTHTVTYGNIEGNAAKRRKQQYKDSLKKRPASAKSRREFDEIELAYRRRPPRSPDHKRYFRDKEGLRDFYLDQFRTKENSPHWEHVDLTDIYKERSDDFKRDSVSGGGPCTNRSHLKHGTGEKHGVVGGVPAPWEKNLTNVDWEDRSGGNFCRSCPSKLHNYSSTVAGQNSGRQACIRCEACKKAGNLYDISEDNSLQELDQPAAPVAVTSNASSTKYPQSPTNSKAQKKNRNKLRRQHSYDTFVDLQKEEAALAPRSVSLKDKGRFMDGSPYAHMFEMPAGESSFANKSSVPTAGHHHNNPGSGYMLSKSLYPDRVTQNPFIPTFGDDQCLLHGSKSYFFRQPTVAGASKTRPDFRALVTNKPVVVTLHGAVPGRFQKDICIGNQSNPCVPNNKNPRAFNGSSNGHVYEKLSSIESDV

[4] = test system: α2δ-1; assay: α2δ-1 expression, α2δ-1-GluN1 complex and synaptosomal proteins after paclitaxel; format: in vivo, rat; conditions: paclitaxel- vs vehicle-treated rats
Protocol: as §1
Quantitative PCR: Rats were deeply anesthetized with 5% isoflurane, and the DRG and dorsal half of spinal cord tissues at the L5 and L6 levels were removed. Total RNA was extracted from the DRG and spinal cord tissues using TRIsure (Cat. #BIO-38032, Bioline, Taunton, Mass.). After treatment with RNase-free DNase (Cat. #79254, QIAGEN, Hilden, Germany), 500 ng RNA was used for reverse transcription with a RevertAid RT Reverse Transcription Kit (Cat. #K1619, Thermo Fisher Scientific, Waltham, Mass.). One μL of 5-times diluted cDNA was added to a 10-μL reaction volume with SYBR Green Real-Time PCR Mix (Cat. #A25780, Thermo Fisher Scientific). Real-time PCR was performed using a QuantStudio 7 Flex Real-Time PCR System (Applied Biosystems, Waltham, Mass.). The thermal cycling conditions used were: 1 cycle at 95° C. for 10 min, 40 cycles at 95° C. for 15 s, and 60° C. for 60 s. The following primers were used: α2δ-1 forward, […] (SEQ ID NO:60); α2δ-1 reverse, […] (SEQ ID NO:61); α2δ-2 forward, […] (SEQ ID NO:62); α2δ-2 reverse, […] (SEQ ID NO:63); α2δ-3 forward, […] (SEQ ID NO:64); α2δ-3 reverse, […] (SEQ ID NO:65); Gapdh forward, […] (SEQ ID NO:66); Gapdh reverse. […] (SEQ ID NO:67). Relative mRNA levels were calculated using the 2−ΔΔCT method and normalized to the Gapdh level in the same sample.
Coimmunoprecipitation using spinal cord tissue membrane extracts: Tissues from the dorsal halves of the rat spinal cord at the L5 and L6 levels were collected under isoflurane anesthesia and homogenized in ice-cold hypotonic buffer (20 mM Tris [pH 7.4], 1 mM CaCl2), 1 mM MgCl2, and protease inhibitors) for extracting membrane proteins. The nuclei and unbroken cells were removed by centrifugation at 300×g for 5 min, and the supernatant was centrifuged for 20 min at 21,000×g. The pellets were re-suspended and solubilized in immunoprecipitation buffer (50 mM Tris [pH7.4], 250 mM NaCl, 10% glycerol, 0.5% NP-40, 20 mM NaF, 1 mM Na3VO4, 10 mM N-ethylmaleimide, 1 mM phenylmethylsulfonyl fluoride, 2 mM benzamide, and protease inhibitors), and the soluble fraction was incubated at 4° C. overnight with Protein A/G beads ([…], Millipore, Darmstadt, Germany) prebound to mouse anti-GluN1 antibody (#75-272, 1:1000, NeuroMab, Davis, Calif.). Protein A/G beads prebound to mouse IgG were uses as the control. All samples were washed 3 times with immunoprecipitation buffer and then immunoblotted with rabbit anti-α2δ-1 (#ACC-015, 1:500, Alomone Labs, Jerusalem, Israel) and rabbit anti-GluN1 antibodies (#G8913, 1:1,000, Sigma-Aldrich, St. Louis, Mo.). The amount of the α2δ-1-GluN1 protein complex was calculated by normalizing the amount of α2δ-1 to that of GluN1 on the same gel. […]

`CC(=O)O[C@H]1C(=O)[C@@]2(C)[C@H]([C@H](OC(=O)c3ccccc3)[C@]3(O)C[C@H](OC(=O)[C@H](O)[C@@H](NC(=O)c4ccccc4)c4ccccc4)C(C)=C1C3(C)C)[C@]1(OC(C)=O)CO[C@@H]1C[C@@H]2O` [paclitaxel] was tested, and the “withdrawal thresholds to tactile, noxious pressure and noxious heat stimuli” value [1] was “lower withdrawal thresholds”, the “duration of hypersensitivity after the last injection” value [2] was “at least 10 days” and the “pain hypersensitivity after systemic paclitaxel” value [2] was “induced tactile allodynia and heat and cold hyperalgesia”. The “baseline amplitude of evoked monosynaptic EPSCs” value [3] was “significantly larger”, the “baseline frequency of mEPSCs in lamina II neurons” value [3] was “significantly higher” and the “paired-pulse ratio (PPR) in lamina II neurons” value [3] was “significantly reduced”. For the same molecule, the “mRNA level of α2δ-2 or α2δ-3 in the DRG and dorsal spinal cord” value [4] was “similar”, the “α2δ-1-GluN1 complex in the dorsal spinal cord” value [4] was “significantly higher” and the “α2δ-1 and GluN1 protein levels in spinal synaptosomes” value [4] was “significantly higher”. The “α2δ-1 mRNA levels in the DRG and dorsal spinal cord” value [4] was “substantially higher” and the “α2δ-1 protein levels in the DRG and spinal cord” value [4] was “much higher”.
